Where “and” joins values, the source holds several entries; their conditions need not be identical. Equal values may be shown once.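 Protocol summary: plate cells (96-well), add compound at 5 concentrations, incubate 48 h, interpolate endpoints linearly. Abbreviation: GI50, concentration required for 50% inhibition of growth. TGI: total growth inhibition.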
How the values were obtained:
Assay in all cases: growth of human tumour cells (NCI), 48 h
[1] = system: SN12C renal
[2] = system: NCI-H226 lung
[3] = system: HS 578T breast
[4] = system: SK-MEL-2 melanoma
[5] = system: A549 NSCLC
[6] = system: BT-549 breast
[7] = system: IGROV1 ovarian
[8] = system: MALME-3M melanoma
[9] = system: OVCAR-5 ovarian
[10] = system: T-47D breast

SMILES | GI50 [1] | TGI [1] | TGI [2] | GI50 [3] | TGI [3] | GI50 [4] | TGI [4] | GI50 [5] | TGI [5] | GI50 [6] | TGI [6] | TGI [7] | GI50 [8] | TGI [8] | TGI [9] | GI50 [2] | GI50 [7] | GI50 [9] | TGI [10] | GI50 [10]
CN(NC(=O)CC(=O)NN(C)C(=S)c1ccccc1)C(=S)c1ccccc1 | > 100 µM | > 100 µM | > 100 µM | 19.2 µM | > 100 µM | 8.77 µM | > 100 µM | 16.7 µM | > 100 µM | 88.7 µM | > 100 µM | > 100 µM | > 69.5 µM | > 100 µM | > 100 µM | – | – | – | – | –
CC(=O)[CH-]C(=O)c1ccccc1.CC(=O)[CH-]C(=O)c1ccccc1.CC(=O)[CH-]C(=O)c1ccccc1.[Tl+3] | 72.6 µM | > 100 µM | > 100 µM | – | – | 15.7 µM | > 100 µM | 42.1 µM | > 100 µM | – | – | > 68.6 µM | 20.2 µM | 49.2 µM | > 100 µM | 35.7 µM | 24.5 µM | > 100 µM | – | –
COc1ccc2c([nH]c3cc(O)c(C)cc32)c1C=O | – | > 25 µM | > 25 µM | – | – | – | > 25 µM | – | > 25 µM | – | – | > 25 µM | – | > 25 µM | > 25 µM | – | – | – | – | –
CN(C)CC(/C(Cc1ccccc1)=N\NC(=O)c1ccncc1)c1ccccc1 (stereo unspecified) | – | > 100 µM | > 100 µM | – | – | – | 42.1 µM | – | > 100 µM | – | – | > 100 µM | – | 93.4 µM | > 100 µM | – | – | – | – | –
S=c1nc(Oc2ccc(Cl)c(Cl)c2)[nH]c(=S)[nH]1 | – | > 95.6 µM | > 77.6 µM | – | > 100 µM | – | – | – | 61.4 µM | – | > 100 µM | > 92.3 µM | – | > 71.3 µM | > 100 µM | – | – | – | 59.6 µM | –
Nc1nc(Nc2ccc3c(c2)CC[C@@H](N2CCCC2)CC3)nn1-c1cc2c(nn1)-c1ccccc1CCC2 | – | – | – | 1.79 µM | 4.86 µM | 1.93 µM | 3.89 µM | 1.63 µM | 3.57 µM | 1.6 µM | 3.36 µM | – | – | – | 3.29 µM | – | – | 1.63 µM | 5.1 µM | 2.16 µM
COC1/C=C\C=C(/C)C(=O)Nc2cc3nc4ccc(Br)cc4oc-3c(c2=O)CC(C)CC(OC)C(O)C(C)/C=C(\C)C1OC(N)=O (stereo unspecified) | – | 6.36 µM | 17.7 µM | – | 22.9 µM | – | 24.5 µM | – | 22.7 µM | 10.1 µM | 22.6 µM | 19.2 µM | 0.00493 µM | 12.6 µM | 5.88 µM | – | 0.00312 µM | 0.00434 µM | – | –
C1CNCCNCCNCCN1 | – | > 100 µM | > 100 µM | – | – | – | > 100 µM | – | > 100 µM | – | – | > 100 µM | – | > 100 µM | > 100 µM | – | – | – | – | –
O=C1CCCCCCCCCCC(=O)C2CCOCCOCCOCCC1Cc1cccc(n1)C2 | – | > 100 µM | > 100 µM | – | – | – | > 100 µM | – | > 100 µM | – | – | > 100 µM | – | > 100 µM | – | – | – | – | – | –
N/N=C(\CC1OC(=O)c2ccccc21)c1ccco1 (stereo unspecified) | – | – | > 100 µM | – | – | – | > 100 µM | – | > 100 µM | – | – | > 100 µM | – | > 100 µM | > 100 µM | – | – | – | – | –
Cc1cccc(C)c1NC(=O)CCCC(=O)CC(=O)/C=C/c1ccccc1 | – | > 100 µM | – | – | – | – | > 100 µM | – | > 100 µM | – | – | > 100 µM | – | > 100 µM | > 100 µM | – | – | – | – | –
O=C(CNC(=O)OCc1ccccc1)Oc1ccccc1 | – | > 100 µM | > 100 µM | – | – | – | > 100 µM | – | > 100 µM | – | – | > 100 µM | – | > 100 µM | > 100 µM | – | – | – | – | –
CCOc1cc2c(cnc3c4cc(OC)c(OC)cc4ccc23)cc1OC | – | > 100 µM | – | – | – | – | > 100 µM | – | > 100 µM | – | – | > 100 µM | – | > 100 µM | > 100 µM | – | – | – | – | –
CC1(C)OC[C@@H]([C@@]2(CO[Si](C)(C)C(C)(C)C)CC=CC(=O)O2)O1 | 19.5 µM | 47.6 µM | – | 30.4 µM | 89.4 µM | 40.4 µM | > 100 µM | 16.7 µM | 47.5 µM | 24.1 µM | 47.8 µM | 49.6 µM | 20.1 µM | 47.6 µM | 69.3 µM | – | 23.1 µM | 28.6 µM | > 100 µM | 24.9 µM
O=C(Nc1ccc(-n2cc(-c3ccncc3)c(-c3ccc(Cl)c(O)c3)n2)cc1)Nc1cc(C(F)(F)F)cc(C(F)(F)F)c1 | 2.03 µM | 7.57 µM | 10.6 µM | 2.04 µM | 6.59 µM | 1.8 µM | 3.45 µM | 1.93 µM | 4.3 µM | 1.49 µM | 3.22 µM | 4.45 µM | – | – | 7.21 µM | 2.45 µM | 2.04 µM | 2.26 µM | 8 µM | 1.85 µM
S=c1[nH]c(=S)c2sc(=S)n(-c3ccccc3)c2[nH]1 | – | > 100 µM | > 100 µM | – | – | – | > 100 µM | – | > 100 µM | – | – | > 100 µM | – | > 100 µM | > 100 µM | – | – | – | – | –
CC1Cc2c(N)nc(NN)nc2NC1=O (stereo unspecified) | – | > 100 µM | > 100 µM | – | – | – | – | – | > 100 µM | – | – | > 100 µM | – | > 100 µM | – | – | – | – | – | –
CC(=O)OCC1OC(OC2CC3C(C)(C)C(OC(C)=O)CC[C@]3(C)C3CCC45CC4(CC[C@H]5C(C)CC(O)[C@@H](O)C(C)(C)O)[C@]23C)C(O)C(O)C1O (stereo partly specified) | – | 13.2 µM and 19.1 µM | 13.3 µM | – | – | 2.87 µM | 16.8 µM and 7.36 µM | 19.9 µM | 14.2 µM and 35 µM | – | – | 13.7 µM and 14.4 µM | 13.2 µM | 13.9 µM and 26 µM | 13.9 µM and 27.9 µM | – | 4.63 µM | 14.6 µM | – | –
N#CC1=C(N)N=C(N2CCCCC2)C(C#N)C12Nc1ccccc1S2 (stereo unspecified) | 24.8 µM | > 100 µM | – | – | – | 36.4 µM | 79 µM | 29.5 µM | > 100 µM | 33.3 µM | > 100 µM | > 100 µM | 47.2 µM | > 100 µM | – | – | 58.9 µM | – | > 100 µM | 35 µM
COc1cc2c(c(OC)c1OC)-c1ccc(SC)c(=O)cc1[C@@H](NC(=O)c1ccc(OC(C)=O)cc1)CC2 | – | 18.8 µM | 0.0528 µM | – | – | – | – | – | > 100 µM | – | – | > 100 µM | – | – | 65.5 µM | – | – | – | – | –
COc1ccc(C2S/C(=C\c3cc(OC)c(OC)c(OC)c3)C(=O)N2NC(=O)Cc2ccccc2)cc1 (stereo unspecified) | – | > 100 µM | > 100 µM | – | – | – | > 100 µM | – | > 100 µM | – | – | > 100 µM | – | > 100 µM | > 100 µM | – | – | – | – | –
